# “Also recorded” adds a separate entry of the source.
# How the values were obtained:
# sperm = experiment: Sperm head morphology after X-ray radiation; type: in vivo, mouse; settings: X-ray 2.5 Gy, single S.C. injection 6 mg/kg, 12 hours
# Description: Three-month old mice were irradiated with X-ray (2.5 Gy) and treated with a single S.C. injection of 6 mg/kg of compound 68 or 70. Mice were sacrificed 12 hours later and sperm were removed from the epididymis and stained with eosin. The number of morphologically defective sperm (head morphology) were quantified and presented as a percentage value of the total sperm count (N=6 mice per group) (FIG. 26A). FIG. 26B provides a light micrograph showing healthy and defective sperm head morphology observed. The arrows labeled 1 and 2 point to defective sperm head morphology, and the arrows labeled 3 and 4 point to healthy sperm head morphology
# ICR mice = experiment: Sperm count from the epididymis, with or without X-ray radiation; type: in vivo, mouse
# Description: Toward this end, ICR mice (3 months old) were injected with 6 mg/kg of Compound 79, Compound 68 or Compound 70, or mice were subjected to X-ray radiation (2.5 Gy) followed by immediately injection of the respective compounds. Control mice were untreated or vehicle treated with or without exposure to X-ray radiation. […] Testes were also taken for immunohistochemical and immunofluorescence analysis with various spermatogenesis markers. Epididymis was also taken for sperm count.
# FSH = FSH expression by RT-PCR in pituitary gland cells; type: cell-based, mouse; settings: 50 nM, 6 hours, vs untreated
# Description: (§1) FIGS. 29A, 29B, 29C and 29D: The embodied compounds affect the expression of gonadotropin hormones in pituitary gland cells. Cells (L T2) derived from the mouse pituitary gland were assessed for their secretion of LH and FSH at 6 (FIGS. 29A and 29B) and 12 hours (FIGS. 29C and 29D) following treatment with the indicated embodied compounds (50 nM). FSH and LH expression was determined by RT-PCR, and quantified from 5 different experiments, as assessed for significance, using the t test, one way ANOVA.
# [1] = test system: Telomerase reverse transcriptase (TERT); experiment: TERT relative mRNA levels by qRT-PCR in granulosa cells; type: cell-based, rat; settings: 50 nM and 200 nM for 6 hours
# Description: (§2) Immortalized rat granulosa cells expressing FSH receptor were treated with either pregnant mare serum gonadotropin (PMSG), or the indicated compounds, or both for 6 hours. Protein extracts prepared from these cells served for telomerase activity measurement using a telomere repeat amplification protocol (TRAP) assay.
# (§3) Briefly, protein extract incubated with oligonucleotide, which serves as a template for telomerase (TS), for 45 minutes at 30° C. followed by PCR with reverse primer (ACX) and internal control. PCR products were separated on 4.5% agarose gel. RNA extracts were used for cDNA synthesis and quantitative real time PCR with specific primers to Telomerase reverse transcriptase (TERT), Steroidogenic acute regulatory protein (StAr) and β-actin as a reference gene. To measure progesterone levels secreted by the cells, granulosa cells were cultured with or without 1 IU/mL PMSG and DMSO, Compound 79 50 nM or compound 70 50 nM in the presence of 100 nM dexamethasone. After 24 hours progesterone levels cell-culture medium were determined by radioimmunoassay (RIA). For cell proliferation measurement, 1×10^5 cells were seeded in a 96 wells plate with 1 IU/mL PMSG and DMSO, Compound 79 50 nM or Compound 70 50 nM. After 24 hours cells viability was measured by XTT proliferation assay.
# CREM = CREM expression in X-ray irradiated testis; type: in vivo, mouse; settings: X-ray 2.5 Gy then injection, 12 hrs
# Description: (§4) Toward this end, ICR mice (3 months old) were injected with 6 mg/kg of Compound 79, Compound 68 or Compound 70, or mice were subjected to X-ray radiation (2.5 Gy) followed by immediately injection of the respective compounds. Control mice were untreated or vehicle treated with or without exposure to X-ray radiation. The testes were removed 12 hrs after treatments and subjected to protein extracts or total RNA preparations for the examination of telomerase activity by TRAP assay, telomerase expression by Western blot and real time PCR. Testes were also taken for immunohistochemical and immunofluorescence analysis with various spermatogenesis markers. Epididymis was also taken for sperm count.
# telomerase = biological target: T1, telomerase (Rattus norvegicus, UniProt Q673L6); experiment: TRAP assay of telomerase activity in granulosa cells; type: cell-based; settings: 50 nM and 200 nM for 6 hours
# T1 construct: Protein extracts prepared from these cells served for telomerase activity measurement; endogenous in cells; host or cells: immortalized rat granulosa cells expressing FSH receptor
# Description: as §2, §3
# mouse ovary = experiment: Hematoxylin-eosin histology of mouse ovary; type: in vivo
# From the text: The ovaries were weighted; one was taken for protein extraction for measuring telomerase activity by TRAP assay, and the other one for the histological examination using hematoxylin-eosin staining of the ovary and its follicles.
# The mice ovaries were removed and fixed with 4% paraformaldehyde overnight, dehydrated in increasing ethanol concentrations to xylene, and embedded in paraffin. A rotary microtome was used to produce 5 μm sections, which were mounted on Superfrost plus slides. The sections were dried and heated at 37° C. overnight and stored in dry place. Paraffin-embedded sections were deparaffinized in xylene and rehydrated in decreasing concentrations of ethanol. Then the sections stained with hematoxylin-eosin or subjected to immunochemical and Immunofluorescent assays [Liani-Leibson, K., I. Har-Vardi, and E. Priel, Inhibition of topoisomerase I by anti-cancer drug altered the endometrial cyclicity and receptivity. Curr Mol Med, 2014. 14(1): p. 141-50].
# LH = LH expression by RT-PCR in pituitary gland cells; type: cell-based, mouse; settings: 50 nM, 12 hours, vs untreated
# Description: as §1
# γ-H2AX = γ-H2AX immunofluorescence of testis; type: in vivo, mouse; settings: 12 hrs
# Description: as §4
# [2] = test system: Steroidogenic acute regulatory protein (StAr); experiment: StAr relative mRNA levels by qRT-PCR in granulosa cells; type: cell-based, rat; settings: 50 nM for 6 hours
# Description: as §2, §3
# ovarian tissue = experiment: Ovarian tissue histopathology following irradiation; type: in vivo; settings: treatment following X-ray irradiation
# From the text: FIGS. 28A, 28B and 28C: Ovarian tissue histopathology following irradiation (FIG. 28A), followed by treatment with Compound 70 (FIG. 28C) or DMSO carrier (FIG. 28B).
# old mice (16 months old) = experiment: Sperm count and motility in old mice; type: in vivo, mouse; settings: single injection 6 mg/Kg
# T1 sequence (Q673L6 whole entry): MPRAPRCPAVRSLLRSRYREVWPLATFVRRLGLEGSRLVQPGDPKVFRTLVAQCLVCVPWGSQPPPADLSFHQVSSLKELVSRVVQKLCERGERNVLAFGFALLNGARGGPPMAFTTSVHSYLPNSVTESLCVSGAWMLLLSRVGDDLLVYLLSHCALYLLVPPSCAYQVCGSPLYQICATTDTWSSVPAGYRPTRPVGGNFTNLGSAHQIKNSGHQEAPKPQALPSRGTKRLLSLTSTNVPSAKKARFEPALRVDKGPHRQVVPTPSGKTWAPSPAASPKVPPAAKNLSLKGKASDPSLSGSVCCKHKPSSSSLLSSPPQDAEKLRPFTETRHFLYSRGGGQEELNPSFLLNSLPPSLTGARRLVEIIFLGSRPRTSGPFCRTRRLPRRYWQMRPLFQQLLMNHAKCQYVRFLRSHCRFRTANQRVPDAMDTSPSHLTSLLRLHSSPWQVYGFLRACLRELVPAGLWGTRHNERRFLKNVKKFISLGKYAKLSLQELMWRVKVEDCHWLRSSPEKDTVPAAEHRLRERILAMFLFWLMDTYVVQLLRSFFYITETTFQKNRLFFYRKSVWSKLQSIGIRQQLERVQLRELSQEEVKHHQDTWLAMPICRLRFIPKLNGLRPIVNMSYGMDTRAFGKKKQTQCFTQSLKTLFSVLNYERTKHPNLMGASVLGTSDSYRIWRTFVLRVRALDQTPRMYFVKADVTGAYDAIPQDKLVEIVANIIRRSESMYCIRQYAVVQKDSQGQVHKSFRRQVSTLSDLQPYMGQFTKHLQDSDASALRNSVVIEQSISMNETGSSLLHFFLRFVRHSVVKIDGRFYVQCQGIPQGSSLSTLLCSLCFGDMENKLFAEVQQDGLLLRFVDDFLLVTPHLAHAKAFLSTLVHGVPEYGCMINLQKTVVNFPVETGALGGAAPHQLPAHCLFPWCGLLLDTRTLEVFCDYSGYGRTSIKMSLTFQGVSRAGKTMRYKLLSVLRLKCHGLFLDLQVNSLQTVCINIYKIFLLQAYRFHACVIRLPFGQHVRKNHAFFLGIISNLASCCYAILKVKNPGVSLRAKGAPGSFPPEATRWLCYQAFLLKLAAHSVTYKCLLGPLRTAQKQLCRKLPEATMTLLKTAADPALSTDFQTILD
compound,measurement,setting,value
COc1c(Br)cc(C(C)(c2cc(Br)c(OC)c(Br)c2)c2cc(Br)c(OC)c(Br)c2)cc1Br [Compound 70],number of defective sperm cells (head morphology),sperm,reduction in the number of defective sperm cells
same,sperm count,"ICR mice; irradiated mice, 9 and 30 days post irradiation",increased sperm count at 9 and 30 days post irradiation
same,sperm cells number from the epididymis,"ICR mice; non-irradiated mice, 12 hrs post treatment, compared to DMSO",a significant increase
same,FSH expression,FSH,decreased FSH expression relative to untreated samples
same,TERT relative mRNA levels,[1],increased expression in a dose-dependent fashion
same,CREM expression in testis,CREM,restored the expression of the spermatogenesis markers
same,telomerase activity (TRAP),telomerase,increased expression in a dose-dependent fashion; also recorded: further increased telomerase activity and expression in granulosa cells as compared to compound 79
same,"ovary histology (follicles, granulosa cells)","mouse ovary; 6 mg/Kg single dose at met-estrus stage, 12 hours",more developed follicles (white arrow) and plurality of layers of granulosa cells (GC) around the oocytes
same,ovary histology (corpus luteum),"mouse ovary; 6 mg/Kg single dose at pro-estrus and estrus stages, 12 hrs",more corpus luteum (CL) than in the control group
same,LH expression,LH,increased LH production above untreated levels
same,DNA damage (γ-H2AX) in testis,"γ-H2AX; compound only, without irradiation",did not cause DNA damage
same,expression levels of γ-H2AX in testis,γ-H2AX; irradiated mice (2.5 Gy),a decrease in the expression levels of γ-H2AX
same,expression of StAr,[2],increased expression of StAr
same,ovarian tissue histopathology (H&E),ovarian tissue,clearly rescues ovarian tissue exposed to radiation
same,sperm counts,old mice (16 months old),increased
same,sperm motility,old mice (16 months old),increased

# Reference: US12576047B2, “Telomerase activating compounds for use in fertility and related applications” (Neuromagen Pharma Ltd, priority 2017, dated 2026)
